Bounds are passed on as bounds.

The target of the assay is T1, SYK (Homo sapiens, UniProt P43405).
T1 construct: 2.5 nM SYK, 400 nM Biotin-Aha-Aha-KEDPDYEWPSAKK
The assay can be described thus: SYK flash plate assay (enzyme assay). Format: biochemical. How it is done: The kinase assay is performed either as 384-well Flashplate assay (for e.g. Topcount measurement) or as 384-well Image-Flashplate assay (for LEADseeker measurement).
2.5 nM SYK, 400 nM Biotin-Aha-Aha-KEDPDYEWPSAKK
and 10 μM ATP (spiked with 0.3 μCi 33P-ATP/well) are incubated in a total volume of 50 μl (60 mM Hepes, 10 mM MgCl2, 1.2 mM Dithiothreitol, 0.02% Brij35, 0.1% BSA, pH 7.5) with or without test compound for 1 hours at 30° C. The reaction is stopped with 25 μl 200 mM EDTA. After 30 Min at 30° C. the liquid is removed and each well washed thrice with 100 μl 0.9% sodium chloride solution. Non-specific reaction is determined in presence of […] Staurosporine. Radioactivity is measured with Topcount (when using Flashplates) or with LEADseeker (when using Image-Flashplates) respectively. Results (e.g. IC50-values) are calculated with program tools provided by the IT-department (e.g. Symyx Assay Explorer, Genedata Screener). In Vivo Assays CIA
Compound `CC1(C)C(=O)Nc2cc(Nc3nc4c(N5CC(O)CC5c5ccccc5)nccn4n3)ccc21` (stereo not shown) [C79, 6-[8-(4-hydroxy-2-phenyl-pyrrolidin-1-yl)-[1,2,4]triazolo[1,5-a]pyrazin-2-ylamino]-3,3-dimethyl-1,3-dihydro-indol-2-one] displayed an IC50 of 300 to 3000 nM.
`COCC1CCCN1c1nccn2nc(Nc3ccc4c(c3)NC(=O)C4(C)C)nc12` (stereo not shown) [E83, 6-[8-(2-methoxymethyl-pyrrolidin-1-yl)-[1,2,4]triazolo[1,5-a]pyrazin-2-ylamino]-3,3-dimethyl-1,3-dihydro-indol-2-one] displayed an IC50 of 300 to 3000 nM.
As for `CC1(C)C(=O)Nc2cc(Nc3nc4c(N5CC6(C5)NC(=O)NC6=O)nccn4n3)ccc21` [C109, 2-[2-(3,3-dimethyl-2-oxo-2,3-dihydro-1H-indol-6-ylamino)-[1,2,4]triazolo[1,5-a]pyrazin-8-yl]-2,5,7-triaza-spiro[3.4]octane-6,8-dione], the figure is 100 to 300 nM; as for `CC1(C)C(=O)Nc2cc(Nc3nc4c(N5Cc6cn[nH]c6C5)nccn4n3)ccc21` [E32, 6-[8-(4,6-dihydro-1H-pyrrolo[3,4-c]pyrazol-5-yl)-[1,2,4]triazolo[1,5-a]pyrazin-2-ylamino]-3,3-dimethyl-1,3-dihydro-indol-2-one], less than 100 nM.
`CN(C)CCN(C)c1nccn2nc(Nc3ccc4c(c3)NC(=O)C4(C)C)nc12` [E89, 6-{8-[(2-dimethylamino-ethyl)-methyl-amino]-[1,2,4]triazolo[1,5-a]pyrazin-2-ylamino}-3,3-dimethyl-1,3-dihydro-indol-2-one] registered a 50% inhibitory concentration (IC50) of 300 to 3000 nM.
With `COc1cccc(Nc2nc3c(-c4ccccc4C#N)nccn3n2)c1` [E31, 2-[2-(3-methoxy-phenylamino)-[1,2,4]triazolo[1,5-a]pyrazin-8-yl]-benzonitrile], the IC50 was less than 100 nM.
As for `CC1(C)C(=O)Nc2cc(Nc3nc4c(N5C[C@H](O)C[C@@H]5c5ccccc5)nccn4n3)ccc21` [E6, 6-[8-(4(2R,4R)-4-hydroxy-2-phenyl-pyrrolidin-1-yl)-[1,2,4]triazolo[1,5-a]pyrazin-2-ylamino]-3,3-dimethyl-1,3-dihydro-indol-2-one], the figure is 100 to 300 nM; as for `CN(C)c1nccn2nc(Nc3ccc4c(c3)NC(=O)C4(C)C)nc12` [E88, 6-(8-dimethylamino-[1,2,4]triazolo[1,5-a]pyrazin-2-ylamino)-3,3-dimethyl-1,3-dihydro-indol-2-one], less than 100 nM; as for `CC1(C)C(=O)Nc2cc(Nc3nc4c(N5CCCc6ccccc65)nccn4n3)ccc21` [E108, 6-[8-(3,4-dihydro-2H-quinolin-1-yl)-[1,2,4]triazolo[1,5-a]pyrazin-2-ylamino]-3,3-dimethyl-1,3-dihydro-indol-2-one], 300 to 3000 nM.
`COc1ccc(OC)c(Nc2nc3c(-c4ccccc4-c4ccccc4)nccn3n2)c1` [C3, (8-Biphenyl-2-yl-[1,2,4]triazolo[1,5-a]pyrazin-2-yl)-(2,5-dimethoxy-phenyl)-amine] showed an IC50 of 300 to 3000 nM.
As for `CC1(C)C(=O)Nc2cc(Nc3nc4c(N5CCC(O)(C(F)(F)F)CC5)nccn4n3)ccc21` [E70, 6-[8-(4-hydroxy-4-trifluoromethyl-piperidin-1-yl)-[1,2,4]triazolo[1,5-a]pyrazin-2-ylamino]-3,3-dimethyl-1,3-dihydro-indol-2-one], the figure is less than 100 nM; as for `CC1(C)C(=O)Nc2cc(Nc3nc4c(N5C[C@H](O)C[C@@H]5c5ccccc5)nccn4n3)ccc21` (racemic) [C143, 6-[8-(4-hydroxy-2-phenyl-pyrrolidin-1-yl)-[1,2,4]triazolo[1,5-a]pyrazin-2-ylamino]-3,3-dimethyl-1,3-dihydro-indol-2-one], 100 to 300 nM; as for `CC1=NOCC2(CCN(c3nccn4nc(Nc5ccc6c(c5)NC(=O)C6(C)C)nc34)CC2)C1` [E58, 3,3-dimethyl-6-[8-(4-methyl-2-oxa-3,9-diaza-spiro[5.5]undec-3-en-9-yl)-[1,2,4]triazolo[1,5-a]pyrazin-2-ylamino]-1,3-dihydro-indol-2-one], 100 to 300 nM.

The term IC50 denotes the concentration at which inhibition is half-maximal.
